According to patent US20260167656A1, “PHOSPHORAMIDATE COMPOUNDS AND USES THEREOF” (ALLORION THERAPEUTICS INC, priority 2022, published 2026):

Assays:
[1] = tested on: non-small cell lung cancer cell line H460; assay: In vitro human cancer cell line cytotoxicity (proliferation) assay in H460, CellTiter-Glo, 72 hours; format: cell-based; details: DMSO condition (no AKR1C3 inhibitor), read-out: CTG H460: Avg IC50 (nM) [Assay Condition: DMSO]
How it was run: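 IC50s in nM come from CellTiter-Glo viability read after 72 h of compound exposure. Compounds went in from 10 mM DMSO stocks onto H460 cells, which had been plated at 3×10^3 per well and grown 24 h beforehand at 37 °C, 5% CO2.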

[2] = tested on: non-small cell lung cancer cell line H460; assay: H460 proliferation assay in the presence of 3 uM ASP9521 (AKR1C3 specific inhibitor); format: cell-based, human; details: H460 cells, CellTiter-Glo, 72 hours, in the presence of 3 uM ASP9521 added 4 hours prior to compounds; read-out: CTG H460: Avg IC50 (nM) [Assay Condition: ASP9521]
How it was run: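 AKR1C3 blocked with 3 uM ASP9521 given 4 h ahead of test compounds. H460 cells, plated 24 h earlier, were then treated for 72 h at 37 °C in 5% CO2. CellTiter-Glo luminescence gave viability.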

[3] = Homo sapiens, NCI-H460, 72 h, H460 cells
[4] = Homo sapiens, NCI-H460, H460 cells

Structure (SMILES) | IC50 ([1]; H460 cells) | IC50 [2] | IC50 [1, 3] | IC50 [1, 4]
O=[N+]([O-])c1ccc2c(c1Oc1ccc(-c3ccncc3)cc1)CC[C@H]2OP(=O)(N1CC1)N1CC1 [Example 274] | 10 to 50 nM | 7430 nM | – | –
O=[N+]([O-])c1ccc2c(c1Oc1ccc(-c3ccc(F)cn3)c(F)c1)CC[C@@H]2OP(=O)(N1CC1)N1CC1 [Example 275] | – | 1350 nM | < 10 nM | –
O=[N+]([O-])c1ccc2c(c1Oc1ccc(-c3ccc(F)cn3)cc1)CC[C@H]2OP(=O)(N1CC1)N1CC1 [Example 278] | < 10 nM | 1560 nM | – | –
Cc1cccc(-c2ccc(Oc3c([N+](=O)[O-])ccc4c3CC[C@H]4OP(=O)(N3CC3)N3CC3)cc2)n1 [Example 279] | < 10 nM | 1310 nM | – | –
Cc1noc(-c2ccc(Oc3c([N+](=O)[O-])ccc4c3CC[C@@H]4OP(=O)(N3CC3)N3CC3)cc2)n1 [Example 283] | < 10 nM | 1460 nM | – | –
O=[N+]([O-])c1ccc2c(c1Oc1ccc(-c3ncccn3)cc1)CC[C@H]2OP(=O)(N1CC1)N1CC1 [Example 284] | < 10 nM | 1150 nM | – | –
Cc1cncc(-c2ccc(Oc3c([N+](=O)[O-])ccc4c3CC[C@H]4OP(=O)(N3CC3)N3CC3)cc2)n1 [Example 285] | < 10 nM | 754 nM | – | –
Cc1nccc(-c2ccc(Oc3c([N+](=O)[O-])ccc4c3CC[C@H]4OP(=O)(N3CC3)N3CC3)cc2)n1 [Example 286] | < 10 nM | 1870 nM | – | –
O=[N+]([O-])c1ccc2c(c1Oc1ccc(-c3ccccn3)c(F)c1)CCC2OP(=O)(N1CC1)N1CC1 (centres unmarked) [Example 287] | < 10 nM | 1010 nM | – | –
N#Cc1ccc(-c2ccc(Oc3c([N+](=O)[O-])ccc4c3CCC4OP(=O)(N3CC3)N3CC3)cc2)nc1 (centres unmarked) [Example 288] | < 10 nM | 1940 nM | – | –
Cc1csc(-c2ccc(Oc3c([N+](=O)[O-])ccc4c3CCC4OP(=O)(N3CC3)N3CC3)cc2)n1 (centres unmarked) [Example 289] | < 10 nM | 1090 nM | – | –
O=[N+]([O-])c1ccc2c(c1Oc1ccc(-c3ccc(O)cn3)cc1)CC[C@@H]2OP(=O)(N1CC1)N1CC1 [Example 290] | – | 274 nM | < 10 nM | –
Cc1coc(-c2ccc(Oc3c([N+](=O)[O-])ccc4c3CC[C@@H]4OP(=O)(N3CC3)N3CC3)cc2)n1 [Example 291] | – | 1970 nM | < 10 nM | –
Cc1nsc(-c2cccc(Oc3c([N+](=O)[O-])ccc4c3CC[C@@H]4OP(=O)(N3CC3)N3CC3)c2)n1 [Example 292, (S)-4-(3-(3-methyl-1,2,4-thiadiazol-5-yl)phenoxy)-5-nitro-2,3-dihydro-1H-inden-1-yl di(aziridin-1-yl)phosphinate] | – | 1810 nM | – | < 10 nM
COc1ccc(Oc2c([N+](=O)[O-])ccc3c2CC[C@@H]3OP(=O)(N2CC2)N2CC2)cc1-c1ncc(F)cn1 [Example 293, (S)-4-(3-(5-fluoropyrimidin-2-yl)-4-methoxyphenoxy)-5-nitro-2,3-dihydro-1H-inden-1-yl di(aziridin-1-yl)phosphinate] | – | 1050 nM | < 10 nM | –
COc1ccc(Oc2c([N+](=O)[O-])ccc3c2CC[C@@H]3OP(=O)(N2CC2)N2CC2)cc1-c1ncccn1 [Example 294, (S)-4-(4-methoxy-3-(pyrimidin-2-yl)phenoxy)-5-nitro-2,3-dihydro-1H-inden-1-yl di(aziridin-1-yl)phosphinate] | – | 1080 nM | < 10 nM | –
Cc1cnc(-c2cccc(Oc3c([N+](=O)[O-])ccc4c3CC[C@@H]4OP(=O)(N3CC3)N3CC3)c2)o1 [Example 295, (S)-4-(3-(5-methyloxazol-2-yl)phenoxy)-5-nitro-2,3-dihydro-1H-inden-1-yl di(aziridin-1-yl)phosphinate] | – | 3620 nM | 10 to 50 nM | –
O=[N+]([O-])c1ccc2c(c1Oc1cccc(-c3ccccn3)c1)CC[C@H]2OP(=O)(N1CC1)N1CC1 [Example 296] | – | 976 nM | < 10 nM | –
O=[N+]([O-])c1ccc2c(c1Oc1cccc(-c3ccccn3)c1)CC[C@@H]2OP(=O)(N1CC1)N1CC1 [Example 297] | – | 1300 nM | < 10 nM | –
O=[N+]([O-])c1ccc2c(c1Oc1cccc(-c3ccc(F)cc3)c1)CC[C@@H]2OP(=O)(N1CC1)N1CC1 [Example 298] | – | 1690 nM | < 10 nM | –
Cn1cc(-c2cccc(Oc3c([N+](=O)[O-])ccc4c3CCC4OP(=O)(N3CC3)N3CC3)c2)cn1 (centres unmarked) [Example 300] | < 10 nM | 1890 nM | – | –
O=[N+]([O-])c1ccc2c(c1Oc1ccc(F)c(-c3ccc(F)cc3)c1)CC[C@H]2OP(=O)(N1CC1)N1CC1 [Example 306] | – | 1990 nM | – | < 10 nM
O=[N+]([O-])c1ccc2c(c1Oc1ccc(F)c(-c3ccc(F)cc3)c1)CC[C@@H]2OP(=O)(N1CC1)N1CC1 [Example 307] | – | 2360 nM | – | < 10 nM
O=[N+]([O-])c1ccc2c(c1Oc1cccc(C(F)(F)F)c1)CCC2OP(=O)(N1CC1)N1CC1 (centres unmarked) [Example 308] | < 10 nM | 357 nM | – | –
O=[N+]([O-])c1ccc2c(c1Oc1cccc(-c3cccnc3)c1)CC[C@H]2OP(=O)(N1CC1)N1CC1 [Example 309] | – | 3070 nM | 10 to 50 nM | –

Structure (SMILES) | IC50 ([1]; H460 cells) | IC50 [2] | IC50 [1, 3] | IC50 [1, 4]
O=[N+]([O-])c1ccc2c(c1Oc1cccc(-c3cccnc3)c1)CC[C@@H]2OP(=O)(N1CC1)N1CC1 [Example 310] | – | 2010 nM | < 10 nM | –
O=[N+]([O-])c1ccc2c(c1Oc1cncc(-c3ccccc3)c1)CCC2OP(=O)(N1CC1)N1CC1 (centres unmarked) [Example 311] | – | 485 nM | < 10 nM | –
O=[N+]([O-])c1ccc2c(c1Oc1ccc(F)c(-c3ccccc3)c1)CC[C@H]2OP(=O)(N1CC1)N1CC1 [Example 313] | – | 1260 nM | < 10 nM | –
O=[N+]([O-])c1ccc2c(c1Oc1ccc(F)c(-c3ccccc3)c1)CC[C@@H]2OP(=O)(N1CC1)N1CC1 [Example 314] | – | 1590 nM | < 10 nM | –
O=[N+]([O-])c1ccc2c(c1Oc1cccc(C3CC3)c1)CCC2OP(=O)(N1CC1)N1CC1 (centres unmarked) [Example 316] | < 10 nM | 781 nM | – | –
O=[N+]([O-])c1ccc2c(c1Oc1cccc(C3CC3)c1)CCC2OP(=O)(N1CC1)N1CC1 (centres unmarked) [Example 317] | < 10 nM | 1010 nM | – | –
O=[N+]([O-])c1ccc2c(c1Oc1cncc(C3CC3)c1)CC[C@H]2OP(=O)(N1CC1)N1CC1 [Example 318] | – | 1070 nM | < 10 nM | –
O=[N+]([O-])c1ccc2c(c1Oc1cncc(C3CC3)c1)CC[C@@H]2OP(=O)(N1CC1)N1CC1 [Example 319] | – | 521 nM | < 10 nM | –
Cc1cccc(-c2cccc(Oc3c([N+](=O)[O-])ccc4c3CCC4OP(=O)(N3CC3)N3CC3)c2)n1 (centres unmarked) [Example 321] | 10 to 50 nM | 6690 nM | – | –
O=[N+]([O-])c1ccc2c(c1Oc1cccc(-c3ccc(F)cn3)c1)CCC2OP(=O)(N1CC1)N1CC1 (centres unmarked) [Example 322] | < 10 nM | 1610 nM | – | –
O=[N+]([O-])c1ccc2c(c1Oc1cccc(-c3ccc(F)cn3)c1)CCC2OP(=O)(N1CC1)N1CC1 (centres unmarked) [Example 323] | < 10 nM | 2690 nM | – | –
CC(C)(C)c1cncc(Oc2c([N+](=O)[O-])ccc3c2CCC3OP(=O)(N2CC2)N2CC2)c1 (centres unmarked) [Example 325] | < 10 nM | 608 nM | – | –
Cc1noc(-c2cc(Oc3c([N+](=O)[O-])ccc4c3CC[C@@H]4OP(=O)(N3CC3)N3CC3)ccc2F)n1 [Example 326] | – | 1270 nM | < 10 nM | –
O=[N+]([O-])c1ccc2c(c1Oc1ccc(F)c(-c3ncccn3)c1)CC[C@@H]2OP(=O)(N1CC1)N1CC1 [Example 327] | – | 1710 nM | < 10 nM | –
O=[N+]([O-])c1ccc2c(c1Oc1ccc(F)c(-c3ccc(F)cn3)c1)CCC2OP(=O)(N1CC1)N1CC1 (centres unmarked) [Example 328] | < 10 nM | 4230 nM | – | –
O=[N+]([O-])c1ccc2c(c1Oc1ccc(F)c(-c3ncc(F)cn3)c1)CCC2OP(=O)(N1CC1)N1CC1 (centres unmarked) [Example 329] | < 10 nM | 2440 nM | – | –
Cn1cc(-c2cc(Oc3c([N+](=O)[O-])ccc4c3CCC4OP(=O)(N3CC3)N3CC3)ccc2F)cn1 (centres unmarked) [Example 330] | < 10 nM | 2980 nM | – | –
CC(C)c1cc(Oc2c([N+](=O)[O-])ccc3c2CCC3OP(=O)(N2CC2)N2CC2)ccc1F (centres unmarked) [Example 331] | < 10 nM | 1050 nM | – | –
CC(C)c1cc(Oc2c([N+](=O)[O-])ccc3c2CCC3OP(=O)(N2CC2)N2CC2)ccc1F (centres unmarked) [Example 332] | < 10 nM | 1960 nM | – | –
O=[N+]([O-])c1ccc2c(c1Oc1ccc(O)c(-c3ccc(F)cn3)c1)CCC2OP(=O)(N1CC1)N1CC1 (centres unmarked) [Example 333] | < 10 nM | 1310 nM | – | –
O=[N+]([O-])c1ccc2c(c1Oc1ccc(O)c(-c3ccc(F)cn3)c1)CCC2OP(=O)(N1CC1)N1CC1 (centres unmarked) [Example 334] | < 10 nM | 824 nM | – | –
O=[N+]([O-])c1ccc2c(c1Oc1ccc(F)c(C3CC3)c1)CCC2OP(=O)(N1CC1)N1CC1 (centres unmarked) [Example 335] | < 10 nM | 1910 nM | – | –
O=[N+]([O-])c1ccc2c(c1Oc1ccc(F)c(-c3ccccn3)c1)CCC2OP(=O)(N1CC1)N1CC1 (centres unmarked) [Example 336] | < 10 nM | 1680 nM | – | –
O=[N+]([O-])c1ccc2c(c1Oc1ccc(F)c(-c3ccccn3)c1)CC[C@@H]2OP(=O)(N1CC1)N1CC1 [Example 337] | 10 to 50 nM | 5800 nM | – | –
